Assay results as given in patent US9353075B2, “Disubstituted beta-lactones as inhibitors of N-acylethanolamine acid amidase (NAAA)” (The Regents of the University of California, priority 2011, dated 2016).
Entries after “also recorded” stand apart in the source; their conditions may differ. Read-outs that look alike come from different tables or passages of the source.

Tests used:
Acid Ceramidase (AC) = Acid Ceramidase (AC) (Rattus norvegicus (Rat), UniProt Q6P7S1); assay: Acid ceramidase inhibition, recombinant rat AC, LC-MS; assay type: biochemical; settings: read-out: r-AC % inhib. @ 10 μM
Acid Ceramidase (AC), sequence (Q6P7S1 21-394): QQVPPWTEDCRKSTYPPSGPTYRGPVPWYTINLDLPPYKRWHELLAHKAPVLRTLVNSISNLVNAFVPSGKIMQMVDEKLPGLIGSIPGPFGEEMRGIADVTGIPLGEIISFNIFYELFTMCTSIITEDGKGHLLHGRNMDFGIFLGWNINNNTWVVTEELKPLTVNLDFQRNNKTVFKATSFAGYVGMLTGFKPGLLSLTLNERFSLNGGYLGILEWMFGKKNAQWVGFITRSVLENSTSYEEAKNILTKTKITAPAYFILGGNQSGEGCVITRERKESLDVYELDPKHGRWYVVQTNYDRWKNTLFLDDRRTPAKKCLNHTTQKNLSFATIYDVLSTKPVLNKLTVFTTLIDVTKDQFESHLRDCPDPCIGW
Method: The PCR (High Fidelity PCR Master, Roche) product was subcloned into a pEF6-[…] vector (Invitrogen) to construct a mammalian expression vector encoding […]-tagged rat AC. HEK293 cells were transfected with pEF6-rAC-[…] using Super-Fect reagent (Qiagen) and screened with G418 (0.3 mg/mL). Cells were suspended in 20 mM Tris HCl (pH 7.5) containing 0.32M sucrose, sonicated and centrifuged at 800×g for 15 minutes at 4° C. The supernatants were centrifuged again at 12,000×g for 30 minutes at 4° C. The pellets were suspended in phosphate-buffered saline (PBS) and subjected to 2 freeze-thaw cycles at -80° C. The suspensions were centrifuged at 105,000×g for 1 hour at 4° C. The supernatants containing recombinant AC were kept at -80° C. until use. Protein concentration was measured using the bicinchoninic acid (BCA) assay (Pierce). […] Reactions were stopped by addition of a mixture of chloroform/methanol (2:1, vol/vol) containing 1 nmol of heptadecanoic acid (HDA; NuChek Prep). […] HDA was eluted on an XDB Eclipse C18 column isocratically at 2.2 mL/min for 1 minute with a solvent mixture of 95% methanol and 5% water, both containing 0.25% acetic acid and 5 mM ammonium acetate. The column temperature was 50° C. Electrospray ionization (ESI) was in the negative mode, capillary voltage as 4 kV, and fragmentor voltage was 100 V. N2 was used as drying gas at a flow rate of 13 L/min and a temperature of 350° C. Nebulizer pressure was set at 60 psi. We monitored [M-H]- in the selected-ion monitoring (SIM) mode using HDA as internal standard. Calibration curves were generated using commercial lauric acid (Nu-Chek Prep; m/z=199).

DNFB-induced dermatitis = assay: DNFB contact dermatitis in mice, ear thickness; assay type: in vivo, mouse
Method: 2,4-dinitrofluorobenzene (DNFB) (Sigma-Aldrich, Italy) was dissolved in acetone. On day 1 and 2, mice (CD1, 25-30 g, Charles River, Calco, Italy) were sensitized on the skin of the abdomen with hapten (20 μL of 0.5% DNFB). After 5 days, on day 7, mice were challenged with hapten (20 μL of 0.2% DNFB) in the earlobe and treated with drugs to be tested. Control group received the vehicle used to dissolve drugs. Mice (five per group) were placed in a plastic cage. On day 8, ear thickness was determined after challenge using a caliper. Results are expressed as absolute ear thickness.
Fresh drug suspensions of compound 6 were prepared immediately before use in a vehicle consisting of petrolatum plus 5% lauric acid and given in a volume of 20 μL/mouse. Mice were treated with different concentrations of compound 6 or vehicle together with DNFB challenge on […].
Compound 6 and the reported β-lactone NAAA inhibitor (S)-OOPP (Solorzano et al., Proceedings of the National Academy of Science USA 2009, 106, 20966-20971; Solorzano et al., Journal of Medicinal Chemistry 2010, 53, 5770-5781) were tested in this model for their contact sensitivity response. Fresh drug solutions of (S)-OOPP and compound 6 were prepared immediately before use in polyethylene glycol 400 (PEG 400) and given in a volume of 20 μL/ear. Mice were treated with different concentrations of (S)-OOPP, 0.1% compound 6 or vehicle each day for 7 days. Ear thickness was determined on day 0 and every day before challenge using a caliper. Results are expressed as absolute ear thickness.
(§1) The methods included the following. Dermatitis was produced in mice using 2-4 dinitrofluorobenzene (DNFB) as described by Buckley and Nijkamp (1994), Am J Respir Grit Care Med 149:400-7. Mice were sensitized on two consecutive days with a 0.5% DNFB solution applied to the shaved abdomen. At day 8, the ears were challenged with a 0.2% DNFB solution. Ear thickness was determined by using a micrometer. Scratching was evaluated as number of episodes per 60 minutes period. Data were analysed by ANOVA followed by the Bonferroni's test. See also Hargreaves K, et al (1988), Pain 32: 77-88 for related information.

[1] = system: carrageenan-induced paw edema and hyperalgesia; assay: Carrageenan-induced inflammatory responses in mice; assay type: in vivo, mouse
Method: The Methods include the following: Carragenan (1%) was injected into the left hind paw of Swiss albino mice. Paw edema was measured using a plethysmomether. Cutaneous hyperalgesia (thermal) was assesed by the plantar test (see Hargreaves K, et a 1 (1988), Pain 32: 77-88). Compound 6 was administered topically.

[2] = system: skin integrity (ear thickness, histopathology); settings: in vivo
Method: The methods included the following. Drug or vehicle were given topical to both ears of CD1 mice for 14 days. Ear thickness was determined by using a micrometer. Histopathological analyses were conducted on formalin-fixed, paraffin-embedded ear sections […] thick and stained with Hematoxylin-Eosin. Epidermal thickness was measured with standard morphometric methods from 12 different samplings spanning the treated area of each ear. Data were analysed by ANOVA followed by Bonferroni's test for multiple comparisons.

[3] = system: IL-4, IL-5, IFN-g, and IgE blood levels; assay: Immune response in DNFB-induced dermatitis; assay type: in vivo, mouse; settings: mice, topical
Method: The methods include the following. Dermatitis in mice was induced with 2-4 Dinitrofluorobenzene (DNFB) as previously described. IL-4, IL-5, IFN-g, and IgE blood levels were determined by immunoassays. The effect of compound 6 was tested using a single treatment protocol.

DNFB-induced scratching = DNFB-induced scratching in mice; assay type: in vivo, mouse; settings: topical, single dose
Method: as §1
The methods include the following. Itching in mice was induced with DNFB as previously described. Additional studies were done with 48/80 model (an inducer of mast cell degranulation). 48/80 was given subcutaneously (30 mg per kg). Data were analysed by ANOVA followed by Bonferroni's test for multiple comparisons.

[4] = established DNFB-induced ear edema
[5] = repeated dosing, 8 days before DNFB challenge
[6] = compound 6 30% topical, antagonists 1 μg/paw intraplantar

In the case of C[C@@H]1OC(=O)[C@@H]1NC(=O)OCCCCCc1ccccc1 [Example 6, 5-phenylpentyl-[(2S,3R)-2-methyl-4-oxooxetan-3-yl]-carbamate], the inhibition at 10 µM (Acid Ceramidase (AC)) is reported as under 10%, the “Doses of full efficacy, single dosing protocol” value (DNFB-induced dermatitis; [4]) is reported as 10-30% and the “Effective dose-range, repeated dosing protocol” value (DNFB-induced dermatitis; [4]) is reported as 0.01-1%. For the same molecule, the “Time of administration to full efficacy, repeated dosing” value (DNFB-induced dermatitis; [4]) was 3 days, the “Ear swelling 24 h after DNFB challenge” value (DNFB-induced dermatitis; mice, 1-30% w/w suspension in petrolatum plus 5% lauric acid) was “dose-dependently inhibited ear swelling” and the “Contact sensitivity response (ear swelling)” value (DNFB-induced dermatitis; mice, PEG 400 solution, each day for 7 days, (S)-OOPP 0.1-10% w/v, compound 6 0.1%) was “significant decrease in ear swelling”. For the same molecule, the “Established DNFB-induced ear edema (therapeutic effect), repeated dosing” value (DNFB-induced dermatitis; mice, topical, repeated dosing) was “reverses ear thickness increase; also recorded: reverses established DNFB-induced ear edema”, the “Established DNFB-induced ear thickness increase, single dosing” value (DNFB-induced dermatitis; mice, topical, single administration) was “reverses ear thickness increase; also recorded: efficacy is also noted” and the “Doses of complete efficacy, prophylactic protocol” value (DNFB-induced dermatitis; [5]) was 0.1-1%. For the same molecule, the “Prevention of DNFB-induced ear edema (prophylactic effect)” value (DNFB-induced dermatitis; [5]) was “prevents the development of DNFB-induced symptoms; also recorded: prevents DNFB-induced increased ear edema”, the “Anti-inflammatory effect on cutaneous hyperalgesia with receptor antagonists” value [1, 6] was “blocked by PPAR-α antagonists, but not by CB1 or CB2 receptor antagonists” and the “Anti-inflammatory effect on paw edema with receptor antagonists” value [1, 6] was “blocked by PPAR-α antagonists, but not by CB1 or CB2 cannabinoid receptor antagonists”. The Carrageenan-induced paw edema ([1]; mice, topical) was “marked anti-inflammatory”, the Carrageenan-induced hyperalgesia ([1]; mice, topical, 90 min after carrageenan) was “dose-dependently reduces carrageenan-induced hyperalgesia; also recorded: anti-hyperalgesic effects” and the “Anti-inflammatory effects on paw edema and cutaneous hyperalgesia in mice lacking PPAR-α” value ([1]; topical, 90 min after carrageenan) was “absent in mice lacking PPAR-α”. The “Cellular architecture, histopathological and morphometric analysis” value ([2]; CD1, mouse, 14 days) was “but not compound 6, altered cellular architecture”, the “Skin atrophy (decrease of ear thickness)” value ([2]; CD1, mouse, 14 days) was “but not compound 6, causes skin atrophy” and the “Cellular architecture, histopathological and morphometric analysis” value ([2]; mouse) was “no alterations of cellular structure”. For the same molecule, the “Skin atrophy (decrease of ear thickness)” value ([2]; mouse) was “did not affect skin integrity”, the “Dose range of full efficacy on immune response, single administration” value [3] was 1 to 30% and the “Effect on immune response compared with steroids” value [3] was “superior to that of steroids”. For the same molecule, the “Immunological responses in DNFB dermatitis” value [3] was “normalizes compromised immunological responses”, the “DNFB-induced IFN-γ decrease” value ([3]; single dosing) was “reverses DNFB-induced IFN-γ decrease” and the “DNFB-induced IL-4 increase” value ([3]; single dosing) was “reverses DNFB-induced IL-4 increase”. The “DNFB-induced IL-5 increase” value ([3]; single dosing) was “reverses DNFB-induced IL-5 increase”, the “DNFB-induced IgE increase” value ([3]; single dosing) was “reverses DNFB-induced IgE increase” and the DNFB-induced scratching (DNFB-induced scratching) was “prevents DNFB-induced scratching; also recorded: prevented itching”. For the same molecule, the “Dose of full effect, DNFB-induced scratching” value (DNFB-induced scratching) was 1-3% and the “Lowest effective dose, DNFB-induced scratching” value (DNFB-induced scratching) was 0.001%.
